Consider 58 compounds from patent US20130029964A1, “[5, 6] HETEROCYCLIC COMPOUND” (DAIICHI SANKYO COMPANY, LIMITED, priority 2010, published 2013).

Structures are written as SMILES. Where a name gives a salt, the structure may show the parent alone.

This assay deals with ST2 cells, murine bone marrow-derived stromal cells. The experiment in a line: Osteoblast differentiation test (ALP activity). Type of assay: cell-based. The note with it: Mus musculus, ST-2, 96 h, at 0.1 μg/mL, control group (0.1% DMSO) = 100%, four days of culturing, read-out: alkaline phosphatase activity. The procedure: ST2 cells, murine bone marrow-derived stromal cells, (obtained from RIKEN) were used.
In this test, α-MEM media (obtained from GIBCO BRL Cat. No. 10370-021) containing 10% (v/v) of inactivated calf serum (obtained from Hyclone Laboratories, Inc.) and 1% (v/v) of Penicillin-Streptomycin Liquid (obtained from GIBCO BRL Cat. No. 15140-122) (hereinbelow, abbreviated as 10%-FBS-αMEM) were used. In this test, all culturing was performed in a CO2 incubator (37° C., 95% humidity, 5% CO2).
The aforementioned cells were detached with 2 mL of a 0.25% trypsin solution (obtained from GIBCO BRL Cat. No. 15050-065) and dispersed in 10 mL of 10%-FBS-αMEM. Subsequently, the cells were collected by centrifugation (25° C., 800 rpm, five minutes). Then, a cell suspension containing 40000 of the cells/mL of 10%-FBS-αMEM was prepared. The cell suspension was then dispensed into 96-well plates (the product of Falcon), 100 μL per well, at a density of 4000 cells/well, followed by culturing for 24 hours. To the wells, except for the below-described well containing a control group, the compound was dispensed at final concentrations of 0.01, 0.03, 0.1, and 0.3 μg/ml. To the well of a control group, DMSO was dispensed at a final concentration of 0.1% (v/v). After four days of culturing, the activity of alkaline phosphatase (ALP) was measured in each group.
The measurement of ALP activity was performed as follows. That is, the medium in each well of the culture plates was completely removed. Each well was then washed by dispensing 100 μL of Dulbecco's phosphate buffer (obtained from GIBCO BRL Cat. No. 14190-144) and then removing it. A cell lysate solution containing 10 mM MgCl2 and 2% (v/v) TritonX-100 (Sigma) was prepared and dispensed at 50 μL/well, followed by stirring at room temperature for five minutes. An ALP substrate solution containing 50 mM diethanolamine (Wako Pure Chemical Industries, Ltd., Cat. No. 099-03112) and 20 mM p-nitrophenyl phosphate (Wako Pure Chemical Industries, Ltd., Cat. No. 147-02343) was prepared and dispensed at 50 μL/well, and the plates were left to stand at room temperature for 10 minutes. Subsequently, absorbance was measured by a microplate reader (Bio-Rad Laboratories, Inc.). Setting the measurement value of the control group of each plate at 100%, alkaline phosphatase activity (increase (%)) in the test compound-addition group was calculated, which was assessed as the degree of osteoblast differentiation.
`CS(=O)(=O)c1ccc(-c2ccc3c(c2)ncn3-c2ccc(OCCO)cc2)cn1` [Example 129]: the activity at 0.1 µg/mL was ≥ 200%. Under `Cn1cc(-c2ccn3c(N4CCC(OCCOC5CCOCC5)CC4)cnc3c2)cn1` [Example 104] stands ≥ 200%; under `Fc1ccc2ncc(-c3ccc(OCCOCC4CCOCC4)cc3)n2c1` [Example 80], ≥ 200%; under `O=C(O)c1ccc(-c2ccc3c(c2)ncn3-c2ccc(OCCO)cc2)cc1` [Example 13, 4-{1-[4-(2-Hydroxyethoxy)phenyl]-1H-benzimidazol-5-yl}benzoic acid], ≥ 200%. Under `O=C(C1CC1)N1CCC(OCCOC2CCN(c3cnc4ccc(Cl)cn34)CC2)CC1` [Example 138] stands ≥ 200%; under `OCCNc1ccc(-n2cnc3ccccc32)cc1` [Example 97], ≥ 200%; under `COC1COCC1OCCOc1ccc(-c2cnc3ccc(C#N)cn23)cc1` (stereo not shown) [Example 114], ≥ 200%. The same measure for `Cn1cc(-c2ccn3c(N4CCC(OCCO)CC4)cnc3c2)cn1` [Example 105]: ≥ 200%. In the case of `CS(=O)(=O)N1CC=C(c2ccc3c(c2)ncn3-c2ccc(OCCO)cc2)CC1` [Example 61], the activity at 0.1 µg/mL is ≥ 200%. Under `OCCNc1ccc(-n2cnc3cc(Cl)c(Cl)cc32)cc1` [Example 26] stands ≥ 200%; under `OCCOc1ccc(-n2cnc3cc(-c4cn[nH]c4)ccc32)cc1` [Example 54], ≥ 200%. Under `C#Cc1ccc2ncc(-c3ccc(OCCOC4CCOCC4)cc3)n2c1` [Example 21, 6-Ethynyl-3-{4-[2-(tetrahydro-2H-pyran-4-yloxy)ethoxy]phenyl}imidazo[1,2-a]pyridine] stands ≥ 200%; under `COCCOCCOc1ccc(-c2cnc3ccc(F)cn23)cc1` [Example 81], ≥ 200%. On to `N#Cc1ccc2ncc(-c3ccc(OCCO)cc3)n2c1` [Example 69], for which the activity at 0.1 µg/mL was ≥ 200%.

`CS(=O)(=O)Nc1ccc(-c2ccc3c(c2)ncn3-c2ccc(OCCO)cc2)cc1` [Example 53]: the activity at 0.1 µg/mL is ≥ 200%.

As for `c1cc(-c2ccc3c(-c4ccc(OCCOC5CCOCC5)cc4)cnn3c2)ccn1` [Example 127], the activity at 0.1 µg/mL was ≥ 200%. With `Cn1cc(-c2ccc3ncc(-c4ccc(NCCOC5CCOCC5)cc4)n3c2)cn1` [Example 136], the activity at 0.1 µg/mL was ≥ 200%. Under `COc1cc2ncn(-c3ccc(NCCO)cc3)c2cc1OC` [Example 28] stands ≥ 200%; under `CS(=O)(=O)N1CCN(c2ccc3c(c2)ncn3-c2ccc(OCCO)cc2)CC1` [Example 59], ≥ 200%. The same measure for `COc1ccn2c(-c3ccc(NCCO)cc3)cnc2c1` [Example 119]: ≥ 200%; for `O=C(O)c1ccc(OCCOc2ccc(-n3cnc4ccccc43)cc2)cc1` [Example 12, 4-{2-[4-(1H-Benzimidazol-1-yl)phenoxy]ethoxy}benzoic acid hydrochloride]: ≥ 200%. Under `c1cc(-c2ccn3c(-c4ccc(OCCOC5CCOCC5)cc4)cnc3c2)ccn1` [Example 74] stands ≥ 200%; under `CC(=O)n1ccc(-c2ccc3c(c2)ncn3-c2ccc(OCCO)cc2)c1` [Example 62], ≥ 200%. In the case of `CC(=O)N1CC=C(c2ccn3c(-c4ccc(OCCO)cc4)cnc3c2)CC1` [Example 66], the activity at 0.1 µg/mL is ≥ 200%. Under `CC(=O)N1CCC(OCCOc2ccc(-n3cnc4ccccc43)cc2)CC1` [Example 46] stands ≥ 200%; under `c1ccn2ncc(-c3ccc(NCCOC4CCOCC4)cc3)c2c1` [Example 143], ≥ 200%; under `Fc1ccc2ncc(-c3ccc(OCCOC4CCOCC4)cc3)n2c1` [Example 144], ≥ 200%. As to `CN(C)C(=O)c1ccc(-c2ccn3c(N4CCC(OCCO)CC4)cnc3c2)cc1` [Example 107], the activity at 0.1 µg/mL was ≥ 200%. The same measure for `COc1ccc2c(c1)ncn2-c1ccc(NCCO)cc1` [Example 5, 2-{[4-(5-Methoxy-1H-benzimidazol-1-yl)phenyl]amino}ethanol hydrochloride]: ≥ 200%; for `COc1ccc2c(-c3ccc(OCCO)cc3)cnn2c1` [Example 125]: ≥ 200%. Under `OCCOc1ccc(-c2cnc3cc(-c4ccncc4)ccn23)cc1` [Example 72] stands ≥ 200%. Under `COc1ccc2ncc(-c3ccc(OCCO)cc3)n2c1` [Example 124] stands ≥ 200%; under `Fc1ccc2ncn(-c3ccc(OCCOC4CCOCC4)cc3)c2c1` [Example 48], ≥ 200%; under `CS(=O)(=O)N1CCC(OCCOc2ccc(-n3cnc4ccccc43)cc2)CC1` [Example 45], ≥ 200%.

For the compound `COc1ccc2c(c1)ncn2-c1ccc(OCCO)cc1` [Example 27], the activity at 0.1 µg/mL was ≥ 200%. Under `FC(F)Oc1ccc2ncn(-c3ccc(OCCOC4CCOCC4)cc3)c2c1` [Example 25, 6-(Difluoromethoxy)-1-{4-[2-(tetrahydro-2H-pyran-4-yloxy)ethoxy]phenyl}-1H-benzimidazole hydrochloride] stands ≥ 200%. Take `O=C(c1ccc(-c2ccc3c(c2)ncn3-c2ccc(OCCO)cc2)nc1)N1CCOCC1` [Example 130]: the activity at 0.1 µg/mL is ≥ 200%. Under `OCCOc1ccc(-c2cnc3ccc(-c4cc[nH]c4)cn23)cc1` [Example 8, 2-{4-[6-(1H-Pyrrol-3-yl)imidazo[1,2-a]pyridin-3-yl]phenoxy}ethanol] stands ≥ 200%. With `Cc1ccc2ncc(-c3ccc(OCCOC4CCOCC4)cc3)n2c1` [Example 145], the activity at 0.1 µg/mL was ≥ 200%.

`CC(=O)N1CC=C(c2ccn3c(N4CCC(OCCO)CC4)cnc3c2)CC1` [Example 10, 2-({1-[7-(1-Acetyl-1,2,3,6-tetrahydropyridin-4-yl)imidazo[1,2-a]pyridin-3-yl]piperidin-4-yl}oxy)ethanol hydrochloride]: the activity at 0.1 µg/mL is ≥ 200%. Under `CC(=O)Nc1ccc(-c2ccc3c(c2)ncn3-c2ccc(OCCO)cc2)cc1` [Example 14, N-(4-{1-[4-(2-Hydroxyethoxy)phenyl]-1H-benzimidazol-5-yl}phenyl)acetamide] stands ≥ 200%; under `Clc1ccn2c(N3CCC(OCCOC4CCOCC4)CC3)cnc2c1` [Example 139], ≥ 200%; under `c1ccc2c(c1)ncn2-c1ccc(NCCOC2CCOCC2)cc1` [Example 101], ≥ 200%.

Regarding `COc1ccn2ncc(-c3ccc(NCCO)cc3)c2c1` [Example 121], the activity at 0.1 µg/mL is ≥ 200%. Under `c1ccn2c(N3CCC(OCCOC4CCOCC4)CC3)cnc2c1` [Example 79] stands ≥ 200%. The same measure for `CC(=O)N1CCN(c2ccc3c(c2)ncn3-c2ccc(OCCO)cc2)CC1` [Example 40]: ≥ 200%; for `O=C(C1CC1)N1CCC(OCCNc2ccc(-c3cnc4ccccn34)cc2)CC1` [Example 137]: ≥ 200%; for `CC(=O)N1CC=C(c2ccn3c(N4CCC(OCCOC5CCOCC5)CC4)cnc3c2)CC1` [Example 77]: ≥ 200%. The same measure for `FC(F)Oc1ccc2ncn(-c3ccc(OCCOC[C@H]4COCCO4)cc3)c2c1` [Example 95]: ≥ 200%; for `Fc1ccc2ncc(-c3ccc(OCCOC[C@@H]4COCCO4)cc3)n2c1` [Example 88]: ≥ 200%. On to `OCCOc1ccc(-n2cnc3cc4c(cc32)OCCO4)cc1` [Example 35], for which the activity at 0.1 µg/mL was ≥ 200%. Under `OCCOc1ccc(-n2cnc3ccc(Cl)cc32)cc1` [Example 31] stands ≥ 200%. For `OCCOc1ccc(-n2cnc3cc(-c4ccccn4)ccc32)cc1` [Example 128], the activity at 0.1 µg/mL is ≥ 200%. The same measure for `Clc1ccn2c(-c3ccc(OCCOC4CCOCC4)cc3)cnc2c1` [Example 78]: ≥ 200%; for `O=C(COCCOc1ccc(-n2cnc3ccccc32)cc1)N1CCOCC1` [Example 56]: ≥ 200%.

Regarding `OCCOc1ccc(-n2cnc3cc(N4CCOCC4)ccc32)cc1` [Example 36], the activity at 0.1 µg/mL is ≥ 200%. The same measure for `CC(=O)N1CC=C(c2ccc3c(c2)ncn3-c2ccc(OCCO)cc2)CC1` [Example 60]: ≥ 200%; for `COc1ccn2ncc(-c3ccc(OCCO)cc3)c2c1` [Example 120]: ≥ 200%.
